In ChEMBL document CHEMBL4385638, “Synthesis and biological evaluation of 1-alkylaminomethyl-1,1-bisphosphonic acids against Trypanosoma cruzi and Toxoplasma gondii” (Bioorg Med Chem, 2019):

Experiments:
Toxoplasma gondii [1] = assay: Antiparasitic activity against Toxoplasma gondii tachyzoites infected in human TerT cells assessed as decrease in parasite viability by red fluorescent protein based fluorescence method; type: functional; settings: read-out: ED50 (the source's name)
Trypanosoma cruzi = assay: Antiparasitic activity against Trypanosoma cruzi amastigote infected in African green monkey Vero cells decrease in parasite viability measured at day 3 of post infection by red fluorescent protein based fluorescence method; type: functional; settings: 72 h, read-out: ED50 (the source's name)
[2] = target: T1, Farnesyl diphosphate synthase (Trypanosoma cruzi, UniProt Q8WS26); assay: Inhibition of Trypanosoma cruzi FPPS using DMAPP as substrate incubated for 30 mins measured by scintillation counting
T1 sequence (Q8WS26 whole entry): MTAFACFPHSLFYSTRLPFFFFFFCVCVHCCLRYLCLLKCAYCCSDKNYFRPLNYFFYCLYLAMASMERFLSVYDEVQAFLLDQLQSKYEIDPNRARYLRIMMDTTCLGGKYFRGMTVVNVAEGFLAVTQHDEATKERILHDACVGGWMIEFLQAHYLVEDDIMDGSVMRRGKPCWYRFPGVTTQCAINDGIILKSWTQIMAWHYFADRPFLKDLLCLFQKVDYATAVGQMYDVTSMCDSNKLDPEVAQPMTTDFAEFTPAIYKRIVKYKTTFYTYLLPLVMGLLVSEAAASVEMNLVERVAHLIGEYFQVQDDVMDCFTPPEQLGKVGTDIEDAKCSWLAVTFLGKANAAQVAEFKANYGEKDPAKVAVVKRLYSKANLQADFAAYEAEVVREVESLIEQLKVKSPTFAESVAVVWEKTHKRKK

[3] = target: T2, Farnesyl diphosphate synthase (Toxoplasma gondii, UniProt Q197X6); assay: Inhibition of Toxoplasma gondii FPPS using DMAPP as substrate incubated for 30 mins measured by scintillation counting
T2 sequence (Q197X6 whole entry): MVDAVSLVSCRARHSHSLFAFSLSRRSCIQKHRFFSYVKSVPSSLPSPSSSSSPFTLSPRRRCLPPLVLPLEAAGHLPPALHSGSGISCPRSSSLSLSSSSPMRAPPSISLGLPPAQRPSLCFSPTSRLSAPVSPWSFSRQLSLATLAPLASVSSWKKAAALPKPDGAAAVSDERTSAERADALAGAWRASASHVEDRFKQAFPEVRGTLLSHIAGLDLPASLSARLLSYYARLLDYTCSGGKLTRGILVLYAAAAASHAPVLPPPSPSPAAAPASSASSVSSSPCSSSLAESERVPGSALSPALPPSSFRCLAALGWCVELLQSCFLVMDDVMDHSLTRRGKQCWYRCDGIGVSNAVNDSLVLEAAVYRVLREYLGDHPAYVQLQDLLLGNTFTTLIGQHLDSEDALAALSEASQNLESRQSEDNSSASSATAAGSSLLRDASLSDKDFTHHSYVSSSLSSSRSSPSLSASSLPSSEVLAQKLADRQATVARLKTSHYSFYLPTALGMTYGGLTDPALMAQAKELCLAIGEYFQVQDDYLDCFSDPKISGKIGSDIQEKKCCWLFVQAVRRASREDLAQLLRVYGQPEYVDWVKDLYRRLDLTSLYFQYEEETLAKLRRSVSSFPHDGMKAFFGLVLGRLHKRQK

Toxoplasma gondii [4] = assay: Antiparasitic activity against Toxoplasma gondii RH tachyzoites infected in ip dosed Webster mouse assessed as increase in survival rate administered daily starting on day 6 post infection for 10 days and measured 30 days post infection (reference value: 9 to 12 days); type: functional
[5] = Cytotoxicity against African green monkey Vero cells assessed as decrease in cell viability after 3 to 4 days by alamar blue assay; type: cell-based; settings: chlorocebus sabaeus, read-out: ED50 (the source's name)
Vero [6] = assay: Cytotoxicity against African green monkey Vero cells assessed as decrease in cell viability at 2.5 uM after 3 to 4 days by alamar blue assay; type: cell-based; settings: chlorocebus sabaeus
Vero [7] = assay: Cytotoxicity against African green monkey Vero cells assessed as decrease in cell viability at 5 to 10 uM after 3 to 4 days by alamar blue assay; type: cell-based; settings: chlorocebus sabaeus

CCCCCCCCCCCCNCC(P(=O)(O)O)P(=O)(O)O
EC50 (Toxoplasma gondii [1]): 6.23 µM

CCCCCCCC[S+](C)CC(P(=O)(O)O)P(=O)(O)O (centres undefined)
EC50 (Toxoplasma gondii [1]): 7 µM

CCCCCCCSCC(P(=O)(O)O)P(=O)(O)O
EC50 (Trypanosoma cruzi): > 20 µM
EC50 (Toxoplasma gondii [1]): 0.97 µM

CCCCCCCCCCSCC(P(=O)(O)O)P(=O)(O)O
EC50 (Toxoplasma gondii [1]): 1.8 µM

CCCCCCNCC(P(=O)(O)O)P(=O)(O)O
EC50 (Toxoplasma gondii [1]): 9.4 µM

CCCCCCCNCC(P(=O)(O)O)P(=O)(O)O
EC50 (Trypanosoma cruzi): 10 µM
EC50 (Toxoplasma gondii [1]): > 50 µM

CCCCCCCCC(F)(P(=O)(O)O)P(=O)(O)O
IC50 [2]: > 1 µM
EC50 (Trypanosoma cruzi): > 10 µM
EC50 (Toxoplasma gondii [1]): 2.67 µM

CCCCCCCCCC(F)(P(=O)(O)O)P(=O)(O)O
IC50 [2]: > 1 µM
EC50 (Trypanosoma cruzi): > 10 µM
EC50 (Toxoplasma gondii [1]): > 10 µM

CCCCCCCCNCC(O)(P(=O)(O)O)P(=O)(O)O
IC50 [2]: > 10 µM
EC50 (Trypanosoma cruzi): > 10 µM
EC50 (Toxoplasma gondii [1]): 2 µM

O=P(O)(O)C(CNC1CCCC1)P(=O)(O)O
EC50 (Toxoplasma gondii [1]): > 20 µM

CCCCCCCCCCS(=O)(=O)CC(P(=O)(O)O)P(=O)(O)O
IC50 [3]: 0.27 µM
ED50 (Toxoplasma gondii [4]): 0.02 mg/kg
EC50 (Toxoplasma gondii [1]): 0.11 µM

O=P(O)(O)C(CNC1CCCCCC1)P(=O)(O)O
EC50 (Toxoplasma gondii [1]): > 20 µM

CCCCCCNCC(F)(P(=O)(O)O)P(=O)(O)O
IC50 [3]: 0.131 µM
IC50 [2]: 0.915 µM
EC50 (Trypanosoma cruzi): > 10 µM
EC50 (Toxoplasma gondii [1]): > 10 µM

CCCCCCCCCCCCS(=O)(=O)CC(P(=O)(O)O)P(=O)(O)O
EC50 (Toxoplasma gondii [1]): 0.93 µM

CCCCCCCCCNCC(F)(P(=O)(O)O)P(=O)(O)O
IC50 [3]: 0.051 µM
IC50 [2]: 0.034 µM
CC50 [5]: 15 µM
EC50 (Toxoplasma gondii [1]): 2.24 µM

CCCCCCCNCC(F)(P(=O)(O)O)P(=O)(O)O
IC50 [3]: 0.088 µM
IC50 [2]: 0.071 µM
EC50 (Trypanosoma cruzi): > 10 µM
EC50 (Toxoplasma gondii [1]): > 10 µM

CC1CCC(NCC(P(=O)(O)O)P(=O)(O)O)CC1 (centres undefined)
EC50 (Toxoplasma gondii [1]): > 20 µM

CCCCCCCCNCC(F)(P(=O)(O)O)P(=O)(O)O
IC50 [3]: 0.079 µM
IC50 [2]: 0.085 µM
CC50 [5]: 162 µM
EC50 (Trypanosoma cruzi): > 10 µM
EC50 (Toxoplasma gondii [1]): 4.01 µM

CCCCCCCCCCCS(=O)(=O)CC(P(=O)(O)O)P(=O)(O)O
EC50 (Toxoplasma gondii [1]): 0.38 µM

CCCCCCCCCCNCC(F)(P(=O)(O)O)P(=O)(O)O
IC50 [3]: 0.08 µM
IC50 [2]: 0.136 µM
CC50 [5]: 20 µM
EC50 (Toxoplasma gondii [1]): 2.26 µM

CCCCCCCCCCCSCC(P(=O)(O)O)P(=O)(O)O
EC50 (Toxoplasma gondii [1]): 0.54 µM

CCCNCC(F)(P(=O)(O)O)P(=O)(O)O
IC50 [3]: 0.245 µM
IC50 [2]: 0.06 µM
EC50 (Trypanosoma cruzi): > 10 µM

CCCCCNCC(F)(P(=O)(O)O)P(=O)(O)O
IC50 [3]: 0.299 µM
IC50 [2]: 0.611 µM
EC50 (Trypanosoma cruzi): > 10 µM
EC50 (Toxoplasma gondii [1]): > 10 µM

CCCCCCCCCCCNC(P(=O)(O)O)P(=O)(O)O
Activity (Vero [6]): Non-Toxic
CC50 [5]: 10 µM
Activity (Vero [7]): Toxic

CCCCCCCCCCC[S+]([O-])CC(P(=O)(O)O)P(=O)(O)O (centres undefined)
EC50 (Toxoplasma gondii [1]): 0.53 µM

CCCCNCC(F)(P(=O)(O)O)P(=O)(O)O
IC50 [3]: 0.286 µM
IC50 [2]: 0.173 µM
CC50 [5]: > 200 µM
EC50 (Trypanosoma cruzi): > 10 µM
EC50 (Toxoplasma gondii [1]): > 10 µM

O=C(Cn1ccnc1[N+](=O)[O-])NCc1ccccc1 [BENZNIDAZOLE]
EC50 (Trypanosoma cruzi): 2.58 µM
